Measurements from PubChem BioAssay (NCI).
Where “and” joins values, the source holds several entries; their conditions need not be identical. Identical values can stand only once.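 All cell lines were grown in 96-well plates and treated with compound for 48 hours. GI50 = concentration required for 50% inhibition of growth. TGI: total growth inhibition.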

Key:
Assay in all cases: NCI tumour cell line growth inhibition, 48 h
[1] = test system: SW-620 colon
[2] = test system: MDA-MB-231 breast
[3] = test system: BT-549 breast
[4] = test system: SK-MEL-28 melanoma
[5] = test system: PC-3 prostate
[6] = test system: SK-OV-3 ovarian
[7] = test system: DLD-1 colon
[8] = test system: DMS 273 small cell lung
[9] = test system: LXFL 529 NSCLC
[10] = test system: HOP-18 NSCLC
[11] = test system: M19-MEL melanoma
[12] = test system: T-47D breast
[13] = test system: DMS 114 small cell lung
[14] = test system: SNB-78 CNS
[15] = test system: HS 578T breast
[16] = test system: RXF-631 renal
[17] = test system: DU-145 prostate
[18] = test system: KM20L2 colon
[19] = test system: XF 498 CNS
[20] = test system: MDA-N
[21] = test system: SNB-75 CNS
[22] = test system: NCI/ADR-RES ovarian
[23] = test system: EKVX NSCLC
[24] = test system: SF-539 CNS
[25] = test system: OVCAR-3 ovarian
[26] = test system: SK-MEL-5 melanoma
[27] = test system: UACC-257 melanoma
[28] = test system: SK-MEL-2 melanoma
[29] = test system: LOX IMVI melanoma
[30] = test system: SN12K1 renal
[31] = test system: IGROV1 ovarian
[32] = test system: HL-60(TB) leukemia
[33] = test system: NCI-H522 lung
[34] = test system: SF-268 CNS
[35] = test system: OVCAR-4 ovarian
[36] = test system: HCT-15 colon
[37] = test system: NCI-H226 lung
[38] = test system: MOLT-4 leukemia
[39] = test system: HOP-62 NSCLC
[40] = test system: OVCAR-5 ovarian
[41] = test system: NCI-H23 lung
[42] = test system: RXF 393 renal
[43] = test system: A498 renal
[44] = test system: P388/ADR leukemia
[45] = test system: NCI-H460 lung
[46] = test system: UACC-62 melanoma
[47] = test system: HOP-92 NSCLC
[48] = test system: K-562 leukemia
[49] = test system: U251 CNS
[50] = test system: P388 leukemia
[51] = test system: KM12 colon
[52] = test system: HT29 colon
[53] = test system: MCF7 breast
[54] = test system: HCC-2998 colon
[55] = test system: MALME-3M melanoma
[56] = test system: A549 NSCLC
[57] = test system: UO-31 renal
[58] = test system: COLO 205 colon
[59] = test system: CCRF-CEM leukemia
[60] = test system: SNB-19 CNS
[61] = test system: HCT-116 colon
[62] = test system: SF-295 CNS
[63] = test system: RPMI-8226 leukemia

Cc1cc2c(C(C)C)c(O)c(O)c(C=O)c2c(O)c1-c1c(C)cc2c(C(C)C)c(O)c(O)c(C=O)c2c1O was tested, and the TGI [1] was 30.8 µM [middle of 4 runs], the GI50 [2] was 14.8 µM and 6.06 µM and the TGI [2] was 34.5 µM and 16.6 µM. For the same molecule, the TGI [3] was 7.42 µM and 41.7 µM and 29.8 µM, the GI50 [4] was 2.39 µM and 18 µM and 9.01 µM and the TGI [5] was 7.11 µM and 33.8 µM and 24.5 µM. For the same molecule, the TGI [6] was 8.26 µM and 50.9 µM and 31 µM, the TGI [7] was 15.5 µM and the TGI [8] was 18.3 µM. For the same molecule, the TGI [9] was 8.26 µM, the TGI [10] was 11.3 µM and the TGI [11] was 11.4 µM. For the same molecule, the TGI [12] was 7.76 µM and 50.5 µM and 26.4 µM, the TGI [13] was 9.21 µM and the TGI [14] was 25.8 µM. For the same molecule, the TGI [15] was 13.5 µM and 36 µM and 27.8 µM, the TGI [16] was 25.3 µM and the TGI [17] was 4.04 µM and 36.8 µM and 29.4 µM. For the same molecule, the TGI [18] was 11.4 µM, the TGI [19] was 5.55 µM and the TGI [20] was > 100 µM.
In the case of ClCc1ccc2ccc3ccc(CCl)nc3c2n1, the TGI [21] is reported as 5.83 µM, the TGI [1] is reported as 7.79 µM and the TGI [22] is reported as 3.66 µM. For the same molecule, the TGI [23] was > 47.5 µM, the TGI [24] was 5.85 µM and the TGI [25] was 4.81 µM. The TGI [26] was 3.13 µM, the TGI [27] was 3.38 µM and the TGI [28] was 4.81 µM. For the same molecule, the TGI [29] was 2900 nM, the TGI [30] was 4.4 µM and the TGI [31] was 3.48 µM. It also gave a TGI [32] of 4.43 µM, a TGI [33] of 3.44 µM and a TGI [34] of 55 µM. The TGI [35] was 14.5 µM, the TGI [36] was 4.69 µM and the TGI [37] was 9.91 µM. For the same molecule, the TGI [4] was 4 µM, the TGI [38] was 4.02 µM and the TGI [39] was 15.4 µM. For the same molecule, the TGI [40] was 7.82 µM, the TGI [41] was 7.88 µM and the TGI [42] was 3.17 µM. The TGI [43] was 22.4 µM, the TGI [44] was 5.07 µM and the TGI [45] was 19.6 µM. The TGI [46] was 2640 nM, the TGI [7] was 2.89 µM and the TGI [47] was 3.63 µM. The TGI [48] was > 100 µM, the TGI [49] was 3.78 µM and the TGI [50] was 7.32 µM. It also gave a TGI [10] of 8.77 µM, a TGI [51] of 2320 nM and a TGI [52] of 6.28 µM. For the same molecule, the TGI [53] was 2740 nM, the TGI [54] was 8.59 µM and the TGI [11] was 3.97 µM. For the same molecule, the TGI [55] was 3.69 µM, the TGI [13] was 4.26 µM and the TGI [56] was > 42.2 µM. It also gave a TGI [14] of 10.3 µM, a TGI [57] of 3.21 µM and a TGI [58] of 3.15 µM. For the same molecule, the TGI [59] was 8.64 µM, the TGI [60] was 27.9 µM and the TGI [61] was 3.44 µM. For the same molecule, the TGI [62] was 5.69 µM, the TGI [63] was 13.1 µM and the TGI [18] was 12 µM. It also gave a TGI [19] of 4.45 µM.
